{
  "source": "patent US20240165089A1",
  "about": "“METHOD FOR TREATING MYOPIA WITH VINPOCETINE” (EYE HOSPITAL, WENZHOU MEDICAL UNIVERSITY, priority 2021, published 2024)",
  "key": {"[1]": {"system": "lens induction myopia (LIM, −4D lens) guinea pig model", "test": "lens induction myopia (LIM) guinea pig model, injection around the eyeball", "format": "in vivo", "from_the_text": "The form deprivation and lens-induced guinea pig myopia model is a classic and recognized myopia animal model in the field. The model can be used to evaluate the efficacy and safety of drugs for treating myopia. The construction method of the model is well known to those skilled in the art. The animal modeling and administration route in this application refer to the scientific literature previously published by this research group (Sen Zhang, Invest Ophthalmol Vis Sci. 2019 Jul. 1; 60(8):3074-3083.; Miaozhen Pan, Exp Eye Res. 2021 January; 202:108332.), specifically, this application uses the following exemplary construction method of the form deprivation and lens-induced guinea pig myopia model:\nthree-week-old tricolor guinea pigs (both male and female, simulating humans aged 3-26 years old) were used and raised in the experimental animal room of Wenzhou Medical University in a 12-hour light (400-500 lux)/12-hour dark environment with free access to water and food. The myopia model adopted monocular form deprivation (FD) and lens induction (LI) modeling methods. […] In the lens induction group, a −4D lens was fixed in front of the right eye of the animal, and the left eye obtained normal vision. For the above animals, the lenses were cleaned twice a day to prevent the lenses from blurring. The animals in the experimental group were administrated at 9:00-9:30 am every day. […] The administration process for each animal was controlled in about 10 seconds. Administration began on the day of modeling, and was continuous for 2 weeks for the form deprivation group and was continuous for 1 week for the lens induction group. This experiment has been reviewed by the Experimental Animal Ethics Committee of Wenzhou Medical University.\nThe inventors prepared a 5 μM (i.e., 1.75 μg/mL) vinpocetine stock solution and stored at −80° C. The solvent was physiological saline. Before administration experiment, the stock solution was diluted with physiological saline to 1 μM, 0.1 μM, and 0.01 μM, respectively. During the formulation process of vinpocetine eye drops, the solubility can be increased by using conventional physical methods such as heating and stirring, or acids can also be used to adjust the PH value to increase solubility, and finally, the PH value can be adjusted to 7.31.\n2. Lens induction plus drug injection group: • wearing a −4D lens on one eye and injecting vinpocetine (0.01 μM: 0.1 mL/day) into the eye wearing the −4D lens for 1 weeks, sample size=12; • wearing a −4D lens on one eye and injecting vinpocetine (0.1 μM: 0.1 mL/day) into the eye wearing the −4D lens for 1 weeks, sample size=12; • wearing a −4D lens on one eye and injecting vinpocetine (1.00 μM 0.1 mL/day) into the eye wearing the −4D lens for 1 weeks, sample size=13; • 3.\nAll animals in the same model efficacy experiment were measured within the same time period, and the first measurement was at 3 weeks of age, that is, before drug administration. Refractions and eyeball parameters were measured for the animals in the above FDM group before the experiment, after 1 week of administration in the experiment and after 2 weeks of administration in the experiment and for the animals in the LIM group before the experiment, after 3 days of administration in the experiment and after 7 days of administration in the experiment, respectively. The refractions were measured using an eccentric infrared photoretinoscope (EIR) built in our laboratory. Each eye was measured three times and the average was taken as the final result. The axial parameters of the guinea pig's eyeballs were measured using the A-ultrasound probe in the CinescanA/B ultrasonic diagnostic instrument (QuantelMedical, Aviso, France). The ultrasonic frequency was 11 MHz. The ultrasonic propagation speeds of different refractive media of the eyeball were set as: 1557.5 m/s for the anterior chamber, 1723.3 m/s for the lens, and 1540 m/s for the vitreous body."}, "[2]": {"system": "form deprivation myopia (FDM) guinea pig model", "test": "FDM guinea pig model, systemic (gavage) administration", "format": "in vivo", "conditions": "for axial length difference between the eyes / vitreous chamber depth difference between the eyes / refraction difference between the eyes / body weight: FDM; for refraction difference between the eyes: end of treatment (2 weeks); for body weight / mean weight decrease vs solvent group: vinpocetine 50 mg/kg/d gavage", "from_the_text": "The form deprivation myopia animal model and the method for evaluating the efficacy of vinpocetine for myopia treatment used in this experiment were the same as other relevant embodiments (local administration) in this application. Among them, the establishment of a guinea pig model of form deprivation myopia (FDM) and the gavage administration were manipulated and performed referring to the published literature in the inventor's laboratory. […] On the first day of the experiment, form deprivation (FD) myopia modeling began at 8 a.m. on the guinea pigs. The form deprivation myopia model adopted the mask method. The hood was made by the inventors using a 10-inch milky white non-toxic latex balloon. The right eye of the individual guinea pig for modeling was covered by the hood (experimental eye), and the left eye was not covered by the hood (contralateral eye). FD induction was continued during the entire vinpocetine efficacy experiment cycle by gavage administration, and the hood was only briefly removed during eye testing (such as refraction testing). […] The administration route was gavage administration. […] Administration was performed once a day for 2 weeks. […] 2017). Without adding other pharmaceutical excipients or other compounds, the inventors directly and completely dissolved the vinpocetine compound powder in 0.5% methylcellulose solvent (sterile water+methylcellulose) to prepare a vinpocetine preparation (gavage liquid) at 10 mg/mL and 20 mg/mL. The overall appearance of the preparation at room temperature was clear, transparent, and uniform, with no suspended matter visible to the naked eye. The preparation process of the preparation may use conventional physical and chemical solubilization means such as heating, stirring, and pH adjustment as appropriate, and no compounds would precipitate before administration of the preparation."}, "[3]": {"conditions": "vinpocetine 50 mg/kg gavage, 2 weeks"}, "[4]": {"conditions": "vinpocetine 100 mg/kg gavage, 2 weeks"}},
  "data": [
    {"smiles": "CCOC(=O)C1=C[C@]2(CC)CCCN3CCc4c(n1c1ccccc41)[C@@H]32", "note": "[vinpocetine]", "values": [
      {"measurement": "effect of myopia treatment compared with the negative control group", "setting": "[1]; high-, medium- and low-concentration vinpocetine (1, 0.1, 0.01 μM), 3 days", "result": "showed the effect of myopia treatment"},
      {"measurement": "refraction difference between the experimental eye and the contralateral eye", "setting": "[1]; vinpocetine 1 μM 0.1 mL/day peribulbar injection, 3 days", "result": "−2.00±0.82", "unit": "D"},
      {"measurement": "axial length difference between the experimental eye and the contralateral eye", "setting": "[1]; vinpocetine 1 μM, 3 days", "result": "0.04±0.02", "unit": "mm"},
      {"measurement": "inhibition rate for the axial length", "setting": "[1]; vinpocetine 1 μM, 3 days", "result": 55.5, "unit": "%"},
      {"measurement": "inhibition rate for the vitreous chamber depth", "setting": "[1]; vinpocetine 1 μM, 3 days", "result": 58.8, "unit": "%"},
      {"measurement": "refraction inhibition rate", "setting": "[1]; vinpocetine 1 μM, 3 days", "result": 38.5, "unit": "%"},
      {"measurement": "vitreous chamber depth difference between the experimental eye and the contralateral eye", "setting": "[1]; vinpocetine 1 μM, 3 days", "result": "0.03±0.03", "unit": "mm"},
      {"measurement": "axial length difference between the experimental eye and the contralateral eye", "setting": "[1]; vinpocetine 1 μM, 7 days", "result": "0.05±0.02", "unit": "mm"},
      {"measurement": "inhibition rate for the axial length", "setting": "[1]; vinpocetine 1 μM, 7 days", "result": 53.8, "unit": "%"},
      {"measurement": "inhibition rate for the vitreous chamber depth", "setting": "[1]; vinpocetine 1 μM, 7 days", "result": 49.8, "unit": "%"},
      {"measurement": "refraction difference between the experimental eye and the contralateral eye", "setting": "[1]; vinpocetine 1 μM, 7 days", "result": "−2.61±1.17", "unit": "D"},
      {"measurement": "refraction inhibition rate", "setting": "[1]; vinpocetine 1 μM, 7 days", "result": 36.3, "unit": "%"},
      {"measurement": "vitreous chamber depth difference between the experimental eye and the contralateral eye", "setting": "[1]; vinpocetine 1 μM, 7 days", "result": "0.05±0.02", "unit": "mm"},
      {"measurement": "axial length difference between the eyes", "setting": "[2]; [3]", "result": "0.13±0.05", "unit": "mm"},
      {"measurement": "vitreous chamber depth difference between the eyes", "setting": "[2]; [3]", "result": "0.13±0.07", "unit": "mm"},
      {"measurement": "refraction difference between the eyes", "setting": "[2]; vinpocetine 50 mg/kg gavage", "result": "−5.71±2.41", "unit": "D"},
      {"measurement": "body weight", "setting": "[2]; 1 week", "result": "188 ± 22.9", "unit": "g"},
      {"measurement": "body weight", "setting": "[2]; 2 weeks", "result": "210 ± 21.9", "unit": "g"},
      {"measurement": "axial length difference between the eyes", "setting": "[2]; [4]", "result": "0.11±0.05", "unit": "mm"},
      {"measurement": "vitreous chamber depth difference between the eyes", "setting": "[2]; [4]", "result": "0.10±0.06", "unit": "mm"},
      {"measurement": "refraction difference between the eyes", "setting": "[2]; vinpocetine 100 mg/kg gavage", "result": "−5.223±2.20", "unit": "D"},
      {"measurement": "mean weight decrease vs solvent group", "setting": "[2]; 1 week", "result": 9.9, "unit": "%"},
      {"measurement": "mean weight decrease vs solvent group", "setting": "[2]; 2 weeks", "result": 8.4, "unit": "%"}
    ]}
  ]
}
